No end group written: not given here.
Tests used:
[1] = system: S. aureus ATCC25923; assay type: cell-based, Staphylococcus aureus
Protocol: The MIC of all peptides was determined using the microdilution broth method in a 96-well plate. Peptides were dissolved in the DMSO with an initial concentration of 12,800 µg mL^−1. And cells of eight strains were separately suspended in the MHB at a density of approximately 10^5 CFU mL^−1. In the first column of the 96-well plate, 16 µL of peptide and 184 µL of MHB were added to each well to achieve a final concentration of 1,024 µg mL^−1. One-hundred microliters of MHB was added to each of the remaining wells. Then the first column of liquid was mixed well and diluted to the 12th column using the twofold dilution method. One-hundred microliters of prepared bacterial solution was added to all wells, and the 96-well plate was incubated at 37°C for 18–24 h. The MIC was defined as the concentration of the peptide in the well just preceding the first well showing visible turbidity. All experiments were performed in triplicate to ensure reliability.

[2] = system: CRAB; test: Drug resistance assay, 20 passages; assay type: cell-based, carbapenem-resistant Acinetobacter baumannii; conditions: 20 passages at 0.5-fold MIC, n = 3
Protocol: Resistance development assays were performed following previous report ([43]). CRAB was cultured overnight at 37°C at 160 rpm in LB. In wells of a 96-well polypropylene flat-bottom plate, 5 µL of the overnight bacterial culture (10^7 CFU mL^−1) was added to 100 µL of peptides/antibiotic solutions (with final concentrations of 0.25 to 512 µg mL^−1) in MHB. Plates were incubated for 18 to 20 h at 37°C. The MIC, the lowest concentration of peptides/antibiotic that caused lack of visible bacterial growth, was determined for each bacterial species. Thereafter, 5 µL of the growth at the 0.5-fold MIC suspension (10^7 CFU mL^−1) was added to a fresh medium containing peptides/antibiotic, and these mixtures were incubated as described above. This was repeated for 20 passages. All experiments were performed in triplicate to ensure reliability.

[3] = system: CRAB; test: Outer membrane permeability assay (NPN); assay type: cell-based, carbapenem-resistant Acinetobacter baumannii; conditions: 10^8 CFU mL^−1
Protocol: NPN binds phospholipids in the periplasmic space, so NPN assay was carried out to analyze the effect of AMPs on the outer membrane permeabilization of bacteria ([65]). After CRAB was grown to the exponential phase, bacteria cells were harvested and washed three times in washing buffer of 5 mM glucose and 5 mM HEPES (1:1, pH = 7.2) and then re-adjusted to 10^8 CFU mL^−1 in same buffer. Bacterial suspensions (150 µL/well) were loaded into black-walled, clear-bottom 96-well plates with lids. Following bacterial loading, 50 µL of 10 µM NPN was introduced into each well, with 30-min pre-incubation for CRAB. Post-incubation fluorescence signals were acquired using 350 nm excitation and 420 nm emission wavelengths. Compounds (10 µL) were then administered to achieve 1 × MIC/10 × MIC -equivalent final concentrations in the dye-loaded bacterial suspensions. Real-time fluorescence monitoring was performed with continuous acquisition during the first 10 min, followed by measurements at 10-min intervals. Negative controls received 10 µL sterile water in lieu of antimicrobial peptides while maintaining equivalent pre-incubation conditions. All experimental conditions were executed with three biological replicates.

[4] = system: CRAB; test: Biofilm formation inhibition assay (crystal violet); assay type: cell-based, carbapenem-resistant Acinetobacter baumannii; conditions: 1/2 × MIC, 24 h, OD570
Protocol: The crystal violet staining method ([66]) was used to determine the inhibitory activity of the compounds against the biofilm formation of CRAB. The steps were as follows: prepare a bacterial solution (10^6 CFU mL^−1), mix it with different final concentrations of the compound (1/2 × MIC, 1 × MIC, 2 × MIC, and 4 × MIC), and culture it for 24 h. After discarding the supernatant, wash with PBS, add anhydrous methanol to fix the biofilm, and then stain it with crystal violet for 60 min after drying. After washing, dissolve the biofilm with 33% glacial acetic acid, and measure OD570. Three parallel experiments were performed, and the biofilm formation inhibition rate was calculated by the following formula:
(3) Biofilm formation inhibition rate (%)=(1−OD(sample)− OD(blank)/OD(negative)− OD(blank))×100%

In the case of WLKRILKWIGNKLKW [PL-15], the MIC [1] is reported as “lower than 11 µg mL^−1”, the “MIC change after serial passaging” value [2] is reported as “within a twofold range” and the “NPN fluorescence (outer membrane permeability)” value ([3]; 1 × MIC) is reported as “marginal increase in fluorescence intensity”. The “NPN fluorescence (outer membrane permeability)” value ([3]; 10 × MIC) was “rapid and significant increase in fluorescence intensity” and the biofilm formation inhibition [4] was “moderate biofilm inhibition”.

Reference: article PMC12502564, “Evaluation of LLM-generated peptide as foundation template for discovery of effective encrypted AMPs against clinical superbugs” (Microbiology Spectrum, 2025)
